Reference: PMC7366380, “Discovery of a Potent and Selective Covalent Inhibitor and Activity-Based Probe for the Deubiquitylating Enzyme UCHL1, with Antifibrotic Activity” (Journal of the American Chemical Society, 2020)
Values joined by “and” are separate entries in the source; they are usually repeats but may differ in a detail not shown here. Equal entries are not always repeated.

Columns and labels:
Assay in all cases: In-cell proteome-wide competitive ABPP, HEK293: other DUBs and proteins
[1] = biological target: DUBs and other proteins in HEK293 cells (Homo sapiens, UniProt Q96FW1); details: replicates A-C; for Log2 reporter intensity values: OTUB1: competition with ABP 2, DMSO substract (FC); for Log2 reporter intensity values: OTUB1, DMSO subtracted
Sequence of DUBs and other proteins in HEK293 cells (Homo sapiens, UniProt Q96FW1) (Q96FW1 whole entry): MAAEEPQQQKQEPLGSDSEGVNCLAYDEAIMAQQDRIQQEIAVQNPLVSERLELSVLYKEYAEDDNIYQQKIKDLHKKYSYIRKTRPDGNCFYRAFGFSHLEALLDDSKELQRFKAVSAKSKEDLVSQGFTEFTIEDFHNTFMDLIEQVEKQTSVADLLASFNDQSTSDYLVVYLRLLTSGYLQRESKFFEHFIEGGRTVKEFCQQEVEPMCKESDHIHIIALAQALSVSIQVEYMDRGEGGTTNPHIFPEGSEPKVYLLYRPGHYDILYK

[2] = biological target: DUBs and other proteins in HEK293 cells (Homo sapiens, UniProt Q7L5N1); details: for Log2 reporter intensity values, COPS6: TMT replicates; for Log2 reporter intensity values / Log2 reporter intensity values: COPS6: replicates A-C; for Log2 reporter intensity values: COPS6: competition with ABP 2, DMSO substract (FC)
Sequence of DUBs and other proteins in HEK293 cells (Homo sapiens, UniProt Q7L5N1) (Q7L5N1 whole entry): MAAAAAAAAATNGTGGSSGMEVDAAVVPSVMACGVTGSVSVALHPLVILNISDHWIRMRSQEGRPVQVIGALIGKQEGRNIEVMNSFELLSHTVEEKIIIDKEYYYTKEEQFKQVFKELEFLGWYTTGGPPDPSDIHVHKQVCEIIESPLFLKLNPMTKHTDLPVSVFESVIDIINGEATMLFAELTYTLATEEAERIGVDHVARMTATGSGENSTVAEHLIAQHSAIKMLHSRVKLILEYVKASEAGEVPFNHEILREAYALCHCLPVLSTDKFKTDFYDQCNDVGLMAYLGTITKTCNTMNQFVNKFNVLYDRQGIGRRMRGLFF

[3] = biological target: T1, DUBs and other proteins in HEK293 cells (Homo sapiens, UniProt Q96RU2); details: replicates A-C; for Log2 reporter intensity values: USP28: competition with ABP 2, DMSO substract (FC); for Log2 reporter intensity values: USP28, DMSO subtracted
T1 sequence (Q96RU2 1-1077): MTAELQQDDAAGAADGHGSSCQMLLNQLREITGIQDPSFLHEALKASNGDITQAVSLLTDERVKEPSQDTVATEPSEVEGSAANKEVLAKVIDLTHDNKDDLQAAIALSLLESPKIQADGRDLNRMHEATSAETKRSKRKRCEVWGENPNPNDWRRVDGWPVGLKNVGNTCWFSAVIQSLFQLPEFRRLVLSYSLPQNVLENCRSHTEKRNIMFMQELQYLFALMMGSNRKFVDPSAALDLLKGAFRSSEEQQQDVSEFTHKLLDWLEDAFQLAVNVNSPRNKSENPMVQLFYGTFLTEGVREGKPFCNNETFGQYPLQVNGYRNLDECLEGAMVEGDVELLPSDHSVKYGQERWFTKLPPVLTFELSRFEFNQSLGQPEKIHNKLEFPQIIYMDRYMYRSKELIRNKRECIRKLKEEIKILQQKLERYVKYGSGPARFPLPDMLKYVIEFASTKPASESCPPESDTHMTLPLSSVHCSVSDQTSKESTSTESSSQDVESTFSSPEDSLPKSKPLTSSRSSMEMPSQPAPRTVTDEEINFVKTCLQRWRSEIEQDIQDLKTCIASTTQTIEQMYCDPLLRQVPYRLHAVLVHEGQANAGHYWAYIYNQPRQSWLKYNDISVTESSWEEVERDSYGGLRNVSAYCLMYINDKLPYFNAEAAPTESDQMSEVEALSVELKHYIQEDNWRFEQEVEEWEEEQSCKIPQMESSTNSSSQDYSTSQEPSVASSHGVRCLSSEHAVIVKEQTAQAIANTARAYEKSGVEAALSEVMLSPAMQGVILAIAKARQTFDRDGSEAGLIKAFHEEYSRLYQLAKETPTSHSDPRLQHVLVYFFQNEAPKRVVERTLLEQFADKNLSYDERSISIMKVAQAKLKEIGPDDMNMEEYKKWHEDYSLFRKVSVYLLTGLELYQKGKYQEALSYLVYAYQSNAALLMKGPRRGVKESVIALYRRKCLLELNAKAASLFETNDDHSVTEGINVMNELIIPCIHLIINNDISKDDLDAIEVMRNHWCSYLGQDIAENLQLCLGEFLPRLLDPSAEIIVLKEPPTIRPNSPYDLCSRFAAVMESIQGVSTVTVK

[4] = biological target: DUBs and other proteins in HEK293 cells (Homo sapiens, UniProt O00303); details: for Log2 reporter intensity values, EIF3F: TMT replicates; for Log2 reporter intensity values / Log2 reporter intensity values: EIF3F: replicates A-C; for Log2 reporter intensity values: EIF3F: competition with ABP 2, DMSO substract (FC)
Sequence of DUBs and other proteins in HEK293 cells (Homo sapiens, UniProt O00303) (O00303 whole entry): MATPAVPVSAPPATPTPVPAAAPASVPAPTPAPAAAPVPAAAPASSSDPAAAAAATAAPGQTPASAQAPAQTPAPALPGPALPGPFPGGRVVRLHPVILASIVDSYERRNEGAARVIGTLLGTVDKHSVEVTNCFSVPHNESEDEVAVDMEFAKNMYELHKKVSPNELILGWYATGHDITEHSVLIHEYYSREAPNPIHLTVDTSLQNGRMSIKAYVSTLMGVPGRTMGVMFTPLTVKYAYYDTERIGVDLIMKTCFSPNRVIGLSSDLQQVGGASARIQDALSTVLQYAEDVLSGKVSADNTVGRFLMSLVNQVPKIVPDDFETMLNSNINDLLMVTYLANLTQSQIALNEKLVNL

[5] = biological target: DUBs and other proteins in HEK293 cells (Homo sapiens, UniProt Q14694); details: replicates A-C; for Log2 reporter intensity values: USP10: competition with ABP 2, DMSO substract (FC); for Log2 reporter intensity values: USP10, DMSO subtracted
Sequence of DUBs and other proteins in HEK293 cells (Homo sapiens, UniProt Q14694) (Q14694 whole entry): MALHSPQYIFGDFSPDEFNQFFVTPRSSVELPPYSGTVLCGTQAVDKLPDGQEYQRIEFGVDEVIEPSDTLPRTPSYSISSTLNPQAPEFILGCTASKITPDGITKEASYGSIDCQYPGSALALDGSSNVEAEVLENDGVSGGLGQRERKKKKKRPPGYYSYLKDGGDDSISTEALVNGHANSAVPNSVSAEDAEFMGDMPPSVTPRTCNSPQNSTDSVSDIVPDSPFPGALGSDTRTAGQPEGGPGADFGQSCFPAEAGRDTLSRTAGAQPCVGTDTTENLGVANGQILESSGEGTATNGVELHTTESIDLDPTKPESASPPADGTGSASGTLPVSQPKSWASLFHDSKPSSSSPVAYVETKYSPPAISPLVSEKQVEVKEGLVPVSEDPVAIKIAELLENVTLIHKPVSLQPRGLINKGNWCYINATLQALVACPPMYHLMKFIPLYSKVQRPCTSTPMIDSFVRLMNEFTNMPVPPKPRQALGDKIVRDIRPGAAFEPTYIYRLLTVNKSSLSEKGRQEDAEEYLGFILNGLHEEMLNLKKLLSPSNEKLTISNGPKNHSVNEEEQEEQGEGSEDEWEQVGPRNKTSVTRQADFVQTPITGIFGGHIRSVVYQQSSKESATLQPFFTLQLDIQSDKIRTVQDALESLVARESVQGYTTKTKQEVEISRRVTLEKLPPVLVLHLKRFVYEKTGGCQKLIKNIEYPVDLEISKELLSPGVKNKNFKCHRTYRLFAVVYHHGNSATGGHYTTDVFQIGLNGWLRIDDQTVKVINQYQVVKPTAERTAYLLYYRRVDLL

[6] = 5 μM LDN-57444 (60 min) + 20 nM ABP 2 (10 min), All values
[7] = 5 μM LDN-57444 (60 min) + 20 nM ABP 2 (10 min), DMSO subtracted
[8] = 25 μM LDN-57444 (60 min) + 20 nM ABP 2 (10 min), All values
[9] = 25 μM LDN-57444 (60 min) + 20 nM ABP 2 (10 min), DMSO subtracted

## CC(=O)O/N=C1\C(=O)N(Cc2cc(Cl)ccc2Cl)c2ccc(Cl)cc21 [LDN]
[1]; LDN at 5 μM
  Log2 reporter intensity values: OTUB1: 1.034 and 1.042 and 1.019
  Log2 reporter intensity values: 0.04805 and 0.05934 and 0.02777
[1]; LDN at 25 μM
  Log2 reporter intensity values: OTUB1: 1.066 and 0.9796 and 1.019
  Log2 reporter intensity values: 0.09269 and -0.02973 and 0.02677
[1]; LDN_5 μM
  Log2 reporter intensity values: 0.03375 and 0.04187 and 0.01932
[1]; LDN_25 μM
  Log2 reporter intensity values: 0.06623 and -0.02052 and 0.01861
[2]; [6]
  Log2 reporter intensity values, COPS6: 0.1306 and 0.0287 and 0.0623
[2]; [7]
  Log2 reporter intensity values, COPS6: 0.1181 and 0.01629 and 0.04989
[2]; [8]
  Log2 reporter intensity values, COPS6: -0.04892 and -0.02797 and -0.1172
[2]; [9]
  Log2 reporter intensity values, COPS6: -0.06133 and -0.04038 and -0.1296
[2]; COPS6, LDN - 5 μM
  Log2 t-test Difference: 0.0178
[2]; COPS6, LDN at 5 μM, DMSO subtracted
  Log2 reporter intensity values: 0.1181 and 0.01629 and 0.04989
[2]; COPS6, LDN at 25 μM, DMSO subtracted
  Log2 reporter intensity values: -0.06133 and -0.04038 and -0.1296
[2]; COPS6, LDN_5 μM, DMSO subtracted
  Log2 reporter intensity values: 0.08523 and 0.01124 and 0.03507
[2]; COPS6, LDN_25 μM, DMSO subtracted
  Log2 reporter intensity values: -0.04173 and -0.02772 and -0.08603
[2]; LDN at 5 μM
  Log2 reporter intensity values: COPS6: 1.085 and 1.011 and 1.035
[2]; LDN at 25 μM
  Log2 reporter intensity values: COPS6: 0.9584 and 0.9724 and 0.9141
[3]; LDN at 5 μM
  Log2 reporter intensity values: USP28: 1.021 and 0.7867 and 1.08
  Log2 reporter intensity values: 0.03026 and -0.3461 and 0.1114
[3]; LDN at 25 μM
  Log2 reporter intensity values: USP28: 0.7474 and 0.7545 and 1.193
  Log2 reporter intensity values: -0.42 and -0.4063 and 0.2545
[3]; LDN_5 μM
  Log2 reporter intensity values: -0.01852 and -0.253 and 0.04055
[3]; LDN_25 μM
  Log2 reporter intensity values: -0.2923 and -0.2852 and 0.1532
[4]; [6]
  Log2 reporter intensity values, EIF3F: 0.1312 and 0.08738 and -0.0291
[4]; [7]
  Log2 reporter intensity values, EIF3F: 0.1407 and 0.09693 and -0.01955
[4]; [8]
  Log2 reporter intensity values, EIF3F: 0.03265 and -0.09761 and -0.112
[4]; [9]
  Log2 reporter intensity values, EIF3F: 0.0422 and -0.08806 and -0.1024
[4]; EIF3F, LDN - 5 μM
  Log2 t-test Difference: -0.01801
[4]; EIF3F, LDN at 5 μM, DMSO subtracted
  Log2 reporter intensity values: 0.1407 and 0.09693 and -0.01955
[4]; EIF3F, LDN at 25 μM, DMSO subtracted
  Log2 reporter intensity values: 0.0422 and -0.08806 and -0.1024
[4]; EIF3F, LDN_5 μM, DMSO subtracted
  Log2 reporter intensity values: 0.102 and 0.06908 and -0.01388
[4]; EIF3F, LDN_25 μM, DMSO subtracted
  Log2 reporter intensity values: 0.02927 and -0.05963 and -0.06897
[4]; LDN at 5 μM
  Log2 reporter intensity values: EIF3F: 1.102 and 1.069 and 0.9865
[4]; LDN at 25 μM
  Log2 reporter intensity values: EIF3F: 1.03 and 0.9408 and 0.9315
[5]; LDN at 5 μM
  Log2 reporter intensity values: USP10: 0.9581 and 0.8382 and 0.9082
  Log2 reporter intensity values: -0.06168 and -0.2546 and -0.1389
[5]; LDN at 25 μM
  Log2 reporter intensity values: USP10: 0.9726 and 0.903 and 0.8841
  Log2 reporter intensity values: -0.04009 and -0.1472 and -0.1778
[5]; LDN_5 μM
  Log2 reporter intensity values: -0.04282 and -0.1627 and -0.09278
[5]; LDN_25 μM
  Log2 reporter intensity values: -0.02837 and -0.09796 and -0.1169
